Reference: paper PMC8840040, “Pharmacokinetic Characterization of the DDAH1 Inhibitors ZST316 and ZST152 in Mice Using a HPLC-MS/MS Method” (Molecules, 2022)

Experiment: Urinary metabolites in 24 h urine by HPLC-MS/MS
Format: in vivo, FVB mice
Description: The assessment of the urinary elimination after oral and intravenous administration, in the urine fraction collected 24 h post dose, is reported in Table 6. […] To further investigate this issue, we searched for the presence of urinary metabolites in the 24 h urine samples in one mouse per treatment group. We identified at least eight molecules most likely originating from the parent compounds (Table 7; see Supplementary Figure S1 for the hypothesized structures).
Mice were treated with ZST316 and ZST152 using a dose of 60 mg/Kg (oral gavage) and 30 mg/Kg (intravenous bolus). For pharmacokinetic sampling, blood was collected at 15 and 30 min, and 1, 3, 8, and 24 h post dose. Three mice were analyzed per each time point. After the animals were anesthetized with isoflurane, the blood was drained from the retro-orbital plexus into heparinized tubes, and then centrifuged for 10 min at 4000× g at 4 °C to separate plasma. A 24-h urine fraction was collected in three mice for each drug and route of administration. Plasma and urine samples were stored at −20 °C until analysis by HPLC-MS/MS.
[…] chromatography was performed using a series 200 HPLC system (Perkin Elmer, Waltham, MA, USA) under gradient conditions with separation on a HILIC column, 3 µm, 100 A, 2.1 × 150 mm (Waters, Milford, MA, USA), coupled with a 3 µm, 3.9 × 5.0 mm guard column of the same material at the flow rate of 0.2 mL/min. Gradient features: 10% mobile phase (MP) A (NH4HCO2 10 mM, 10% CH3CN, 0.1% HCOOH) and 90% MP B (CH3CN, 0.1% HCOOH) as the initial constant condition; then to 90% MP A in 6 min and the constant condition for 1.5 min. Return to the start condition in 0.5 min and conditioning for 5.5 min. Total run time: 13.5 min. Mass spectrometric detection was performed using an API 4000 triple quadrupole mass spectrometer (SCIEX, Framingham, MA, USA) supplied with a Turbo Ion Spray source set at 350 °C and −4200 V, analyzing biological samples with electrospray ionization (ESI) operating in negative ion mode. Purified air was used as nebulizer gas (Gas 1) and heater gas (Gas 2) and N2 was used as curtain gas and collision activated dissociation gas. They were set to 40, 50, 20, and 4 instrument units (psi), respectively. The declustering potential (DP) was set at −119 V and the collision exit potential (CXP) at –10 V. All parameters of the source were defined by direct infusion of ZST316 and ZST152 1 µg/mL in mobile phase B. The final quantification was carried out in Selected Reaction Monitoring (SRM) with the following transitions: m/z 307.9 → 208.0 (collision energy of −29.5 eV) for ZST316 and m/z 271.9 → 170.9 (collision energy −24.7 eV) for ZST152 (Figure 2 and Figure 3). Data were processed with the software package Analyst 1.6.2 (AB SCIEX).

[1] = after intravenous ZST152, total dose 1.410 mg, mouse #1, 24 h urine
[2] = after intravenous ZST316, total dose 1.326 mg, mouse #1, 24 h urine
[3] = after oral ZST152, total dose 1.158 mg, mouse #3, 24 h urine
[4] = after oral ZST316, total dose 1.308 mg, mouse #3, 24 h urine

Compound | % of Dose recovered in urine [1] | Amount Recovered in urine [1] | % of Dose recovered in urine [2] | Amount Recovered in urine [2] | % of Dose recovered in urine [3] | Amount Recovered in urine [3] | % of Dose recovered in urine [4] | Amount Recovered in urine [4]
COCCNC(=N)N [M1] | 0.039% | 0.55 µg | 0.017% | 0.23 µg | 0.088% | 1.02 µg | 0.21% | 2.74 µg
COCCNC(=N)NCCCC=O [M2] | 9.05% | 128 µg | – | – | 0.023% | 0.27 µg | – | –
COCCNC(=N)NCCCCO [M3] | 0.19% | 2.62 µg | – | – | 4.2% | 49.1 µg | – | –
COCCNC(=N)NCCCC(=O)O [M4] | 6.6% | 93.3 µg | 0.66% | 8.71 µg | 7.6% | 87.8 µg | 8.2% | 108 µg
COCCNC(=N)NCCC[C@H](N)C=NO [M6] | 0.10% | 1.48 µg | – | – | 0.014% | 0.16 µg | – | –
COCCNC(=N)NCCC[C@H](N)C(=O)O [M7] | 0.13% | 1.77 µg | 6.5% | 86.1 µg | 0.22% | 2.58 µg | 76% | 991 µg
COCCNC(=N)NCCC[C@H](O)C(=O)O [M8] | – | – | 0.37% | 4.87 µg | – | – | 4.1% | 53.4 µg
COCCNC(=N)NCCC[C@H](O)C(=O)NC(C)=O [M9] | – | – | 0.32% | 4.28 µg | – | – | 5.4% | 71.0 µg
